# Data published in patent US7879876B2, “Sulfonamide derivatives and use thereof for the modulation of metalloproteinases” (Merck Serono SA, priority 2005, dated 2011).
# How the values were obtained:
# [1] = target: T1, collagenase (MMP-1) (Homo sapiens, UniProt P03956); test: MMP-1 enzyme inhibition assay (coumarin-labelled peptide substrate); format: biochemical; settings: read-out: percentage inhibition MMP1
# T1 sequence (P03956 100-469): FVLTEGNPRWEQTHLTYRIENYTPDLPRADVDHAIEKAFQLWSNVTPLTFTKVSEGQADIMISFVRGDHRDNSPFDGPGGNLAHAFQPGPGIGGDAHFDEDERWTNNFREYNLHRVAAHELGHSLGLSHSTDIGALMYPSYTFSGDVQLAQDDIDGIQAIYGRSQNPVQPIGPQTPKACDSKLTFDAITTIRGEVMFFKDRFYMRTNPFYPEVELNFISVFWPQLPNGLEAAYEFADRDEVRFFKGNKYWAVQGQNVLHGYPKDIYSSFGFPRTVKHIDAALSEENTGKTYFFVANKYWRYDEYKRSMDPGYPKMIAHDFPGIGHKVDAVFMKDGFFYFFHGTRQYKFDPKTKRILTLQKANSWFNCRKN
# How it was run: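 Recombinant human MMP-1, APMA-activated if needed, in Tris-HCl pH 7.6 with NaCl, CaCl2 and 0.05% Brij 35; McaPLGLDpaAR substrate added as 8 μM solution, 2 h at 37 °C. Fluorescence (320/405 nm) read without stopping; IC50 from 10 duplicate concentrations (100 μM–5.1 nM) by four-parameter fit.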
# [2] = target: human ADAM17 (TACE) (Homo sapiens, UniProt P78536); test: TACE enzyme inhibition assay; format: biochemical
# Procedure: Compounds of the invention were tested to assess their activities as inhibitors of MMP-1, MMP-2, MMP-9, MMP-14, MMP-12 and TACE. MMP-9 Assay Protocol
# Compounds of the invention can be tested for inhibitory activity against human ADAM17 in an assay using human Mca-(endo-1a-Dap(Dnp)-TNF-alpha(−5 to +6)amide as substrate (FEBS Letters, 2000, 275-279).
# Stock solutions are prepared as followed: • Assay Buffer: 20 mM Hepes pH 7.5 (Fluka) containing 0.05% Brij 35 (Fluka) • Substrate: 6.1 mM human Mca-(endo-1a-Dap(Dnp)-TNF-alpha(−5 to +6)amide (Bachem) stock solution in 100% DMSO (stored at −20° C.); diluted to 5 μM in assay buffer. • Enzyme: Recombinant human ADAM17, appropriately diluted in assay buffer (1.5 μg/ml).
# Test Compounds are prepared initially as 10 mM compound solution in 100% DMSO, diluted to 1 mM in 100% DMSO, then serially diluted 3-fold in 100% DMSO across a 96-well microtitre plate. Assay concentration range is typically between 100 μM to 0.01 nM. The assay is performed in a total volume of 100 μL per well in 96-well microtitre plates. Appropriate concentrations of test compounds dissolved in 10 μL of DMSO are added to the wells, followed by substrate solution (50 μL, 5 μM prepared by dilution of DMSO stock in assay buffer) and enzyme solution (40 μL). For each as say ten concentrations of test compound are examined in […]. Control wells lack either enzyme or test compound. The reactions are incubated at room temperature for 1.5 hours. The fluorescence at 405 nm is measured immediately with a fluorometer using 355 nm excitation, without stopping the reaction.
# The effect of the test compound is determined from the dose response curve generated by the 10 duplicate concentrations of inhibitor. The IC50 (the concentration of compound required to give a 50% decrease in enzyme activity) is obtained by fitting data to the equation, Y=a+((b−a)/(1+(c/X)^d)). (Y=inhibition achieved for a particular dose; X=the dose in nM; a=minimum y or zero % inhibition; b=maximum y or 100% inhibition; c=is the IC50; d=is the slope). The result is rounded to one significant figure.
# Sequence of human ADAM17 (TACE) (P78536 215-824): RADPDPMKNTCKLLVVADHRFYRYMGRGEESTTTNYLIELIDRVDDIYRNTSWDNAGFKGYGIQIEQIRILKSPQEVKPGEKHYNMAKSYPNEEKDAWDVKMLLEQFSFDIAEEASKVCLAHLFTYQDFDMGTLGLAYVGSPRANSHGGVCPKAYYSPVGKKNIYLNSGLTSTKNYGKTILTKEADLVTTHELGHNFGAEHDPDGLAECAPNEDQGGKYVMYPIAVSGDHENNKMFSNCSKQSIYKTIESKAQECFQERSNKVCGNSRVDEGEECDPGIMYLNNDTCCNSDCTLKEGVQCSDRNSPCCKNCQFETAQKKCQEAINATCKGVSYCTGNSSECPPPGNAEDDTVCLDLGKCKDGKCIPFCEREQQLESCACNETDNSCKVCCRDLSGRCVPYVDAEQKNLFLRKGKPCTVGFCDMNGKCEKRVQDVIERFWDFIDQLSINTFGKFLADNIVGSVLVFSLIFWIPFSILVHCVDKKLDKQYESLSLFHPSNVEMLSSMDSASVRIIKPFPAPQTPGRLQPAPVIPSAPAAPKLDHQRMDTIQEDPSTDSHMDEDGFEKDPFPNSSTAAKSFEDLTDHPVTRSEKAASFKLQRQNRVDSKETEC
Compound,inhibition at 5 µM [1] [%],IC50 [2] [nM],inhibition at 0.1 µM [1] [%]
"O=CN(O)C(CS(=O)(=O)N1CCc2ccc(F)cc2C1)C1CCN(Cc2ccccc2)CC1 (centres unmarked) [Example 53, N-{1-(1-benzylpiperidin-4-yl)-2-[(7-fluoro-3,4-dihydro-isoquinolin-2(1H)-yl)sulfonyl]ethyl}-N-hydroxyformamide]",16,245,–
"CC(C)(CS(=O)(=O)N1CCc2ccc(Br)cc2C1)N(O)C=O [Example 56, N-{2-[(7-bromo-3,4-dihydroisoquinolin-2(1H)-yl)sulfonyl]-1,1-dimethylethyl}-N-hydroxyformamide]",34,> 5000,–
"CC(C)(C)c1ccc2c(c1)CN(S(=O)(=O)CC(COCc1ccccc1)N(O)C=O)CC2 (centres unmarked) [Example 57, N-(2-(benzyloxy)-1-{[(7-tert-butyl-3,4-dihydroisoquinolin-2(1H)-yl)sulfonyl]methyl}ethyl)-N-hydroxyformamide]",0,> 5000,–
"O=CN(O)C(COCc1ccccc1)CS(=O)(=O)N1CCc2ccc(C(F)(F)F)cc2C1 (centres unmarked) [Example 59, N-[2-(benzyloxy)-1-({[7-(trifluoromethyl)-3,4-dihydro-isoquinolin-2(1H)-yl]sulfonyl}methyl)ethyl]-N-hydroxyformamide]",35,> 5000,–
"O=CN(O)C1(CS(=O)(=O)N2CCc3ccc(Cl)cc3C2)CCCC1 [Example 62, N-(1-{[(7-chloro-3,4-dihydroisoquinolin-2(1H)-yl)-sulfonyl]methyl}cyclopentyl)-N-hydroxyformamide]",52,882,–
"CCCCCC(C)(C)C(CS(=O)(=O)N1CCc2cc(C(F)(F)F)ccc2C1)N(O)C=O (centres unmarked) [Example 63, N-[2,2-dimethyl-1-({[6-(trifluoromethyl)-3,4-dihydro-isoquinolin-2(1H)-yl]sulfonyl}methyl)heptyl]-N-hydroxyformamide]",34,> 5000,–
"CC(C)(C)C(CS(=O)(=O)N1CCc2ccc(Cl)cc2C1)N(O)C=O (centres unmarked) [Example 65, N-(1-{[(7-chloro-3,4-dihydroisoquinolin-2(1H)-yl)sulfonyl]methyl}-2,2-dimethylpropyl)-N-hydroxyformamide]",30,490,–
"O=CN(O)C(CS(=O)(=O)N1CCc2ccc(-c3ccsc3)cc2C1)C1CCCC1 (centres unmarked) [Example 68, N-(1-cyclopentyl-2-{[7-(3-thienyl)-3,4-dihydroisoquinolin-2(1H)-yl]sulfonyl}ethyl)-N-hydroxyformamide]",0,268,–
"O=CN(O)C(CS(=O)(=O)N1CCc2ccc(-c3ccccc3)cc2C1)C1CCCC1 (centres unmarked) [Example 69, N-{1-cyclopentyl-2-[(7-phenyl-3,4-dihydroisoquinolin-2(1H)-yl)sulfonyl]ethyl}-N-hydroxyformamide]",4,606,–
"O=CN(O)C(CS(=O)(=O)N1CCc2ccc(-c3cccc(O)c3)cc2C1)C1CCCC1 (centres unmarked) [Example 70, N-(1-cyclopentyl-2-{[7-(3-hydroxyphenyl)-3,4-dihydroisoquinolin-2(1H)-yl]sulfonyl}ethyl)-N-hydroxyformamide]",0,> 5000,–
"O=CN(O)C(CS(=O)(=O)N1Cc2ccccc2C1)C1CC1 (centres unmarked) [Example 72, N-[1-cyclopropyl-2-(1,3-dihydro-2H-isoindol-2-ylsulfonyl)-ethyl]-N-hydroxyformamide]",75,683,–
"O=CN(O)C(CS(=O)(=O)N1CCc2cc(C(F)(F)F)ccc2C1)C1CC1 (centres unmarked) [Example 74, N-(1-cyclopropyl-2-{[6-(trifluoromethyl)-3,4-dihydro-isoquinolin-2(1H)-yl]sulfonyl}ethyl)-N-hydroxyformamide]",44,> 5000,–
"O=CN(O)C(CS(=O)(=O)N1CCc2ccc(-c3ccc(F)cc3)cc2C1)C1CC1 (centres unmarked) [Example 75, N-(1-cyclopropyl-2-{[7-(4-fluorophenyl)-3,4-dihydro-isoquinolin-2(1H)-yl]sulfonyl}ethyl)-N-hydroxyformamide]",0,394,–
"O=CN(O)C(CS(=O)(=O)N1CCc2cc(Cl)c(Cl)cc2C1)C1CCCC1 (centres unmarked) [Example 77, N-{1-cyclopentyl-2-[(6,7-dichloro-3,4-dihydroisoquinolin-2(1H)-yl)sulfonyl]ethyl}-N-hydroxyformamide]",17,229,–
"O=CN(O)C(CS(=O)(=O)N1CCc2ccc(-c3ccncc3)cc2C1)C1CCCC1 (centres unmarked) [Example 79, N-{1-cyclopentyl-2-[(7-pyridin-4-yl-3,4-dihydroisoquinolin-2(1H)-yl)sulfonyl]ethyl}-N-hydroxyformamide]",0,587,–
"O=CN(O)C(CS(=O)(=O)N1Cc2ccc(F)cc2C1)C1CCCC1 (centres unmarked) [Example 80, N-{1-cyclopentyl-2-[(5-fluoro-1,3-dihydro-2H-isoindol-2-yl)sulfonyl]ethyl}-N-hydroxyformamide]",25,> 5000,–

# These reach a lower IC50 [2]. Values come first.
inhibition at 5 µM [1] [%],IC50 [2] [nM],inhibition at 0.1 µM [1] [%],Compound
14,92,–,"O=CN(O)C(CS(=O)(=O)N1CCc2ccc(F)cc2C1)c1ccoc1 (centres unmarked) [Example 52, N-[2-[(7-fluoro-3,4-dihydroisoquinolin-2(1H)-yl)sulfonyl]-1-(3-furyl)ethyl]-N-hydroxyformamide]"
69,157,7,"CC(C)CC(CS(=O)(=O)N1CCc2ccc(Br)cc2C1)N(O)C=O (centres unmarked) [Example 55, N-(1-{[(7-bromo-3,4-dihydroisoquinolin-2(1H)-yl)-sulfonyl]methyl}-3-methylbutyl)-N-hydroxyformamide]"
68,56,4,"O=CN(O)C(COCc1ccccc1)CS(=O)(=O)N1CCc2ccc(Cl)cc2C1 (centres unmarked) [Example 58, N-(2-(benzyloxy)-1-{[(7-chloro-3,4-dihydroisoquinolin-2(1H)-yl)sulfonyl]methyl}ethyl)-N-hydroxyformamide]"
6,79,–,"O=CN(O)C(CS(=O)(=O)N1CCc2ccc(F)cc2C1)C1CCCC1 (centres unmarked) [Example 60, N-{1-cyclopentyl-2-[(7-fluoro-3,4-dihydroisoquinolin-2(1H)-yl)sulfonyl]ethyl}-N-hydroxyformamide]"
22,89,–,"O=CN(O)C(COc1ccccc1)CS(=O)(=O)N1CCc2ccc(Cl)cc2C1 (centres unmarked) [Example 61, N-[2-[(7-chloro-3,4-dihydroisoquinolin-2(1H)-yl)sulfonyl]-1-(phenoxymethyl)ethyl]-N-hydroxyformamide]"
36,91,–,"O=CN(O)C(CS(=O)(=O)N1CCc2ccc(Br)cc2C1)C1CCCC1 (centres unmarked) [Example 64, N-{2-[(7-bromo-3,4-dihydroisoquinolin-2(1H)-yl)sulfonyl]-1-cyclopentylethyl}-N-hydroxyformamide]"
19,88,–,"O=CN(O)C(CS(=O)(=O)N1CCc2ccc(Cl)cc2C1)C1CC1 (centres unmarked) [Example 73, N-{2-[(7-chloro-3,4-dihydroisoquinolin-2(1H)-yl)sulfonyl]-1-cyclopropylethyl}-N-hydroxyformamide]"
43,115,–,"O=CN(O)C(CCC(F)(F)F)CS(=O)(=O)N1CCc2ccc(Cl)cc2C1 (centres unmarked) [Example 76, N-(1-{[(7-chloro-3,4-dihydroisoquinolin-2(1H)-yl)-sulfonyl]methyl}-4,4,4-trifluorobutyl)-N-hydroxyformamide]"
